The values that follow come from PubChem BioAssay (NCI).

Each structure is given as a SMILES string.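 Growth conditions: 96-well plates. Treatment: test compound, 48 hours, 5 concentrations. Analysis: linear interpolation between bracketing concentrations; unreached endpoints set to highest concentration. Here, GI50 denotes the concentration required for 50% inhibition of growth. TGI: concentration producing complete growth inhibition.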

Test systems include DLD-1 colon; DMS 114 small cell lung; DMS 273 small cell lung; LXFL 529 NSCLC; M19-MEL melanoma; SNB-78 CNS; XF 498 CNS; MCF7 breast; MDA-MB-435; T-47D breast.
Experiment in all cases: NCI anticancer screen, dose series, 48 h

On to `COc1cc([C@@H]2c3cc4c(cc3[C@@H](NC(=O)c3ccc(OC(C)=O)cc3)C3COC(=O)[C@@H]32)OCO4)cc(OC)c1O` (stereo partly specified), for which the TGI was 26 µM in the experiment on DLD-1 colon; 5.38 µM in the experiment on DMS 114 small cell lung; 12.4 µM in the experiment with DMS 273 small cell lung; 44.2 µM in the experiment with LXFL 529 NSCLC; 40.1 µM with M19-MEL melanoma; above 100 µM with SNB-78 CNS. The compound also gave a TGI in the experiment on XF 498 CNS of 6.96 µM.

On to `O=C(NC(Cc1ccccc1)C(=O)CCl)OCc1ccccc1` (stereo unspecified), for which the TGI worked out at 21.5 µM with DLD-1 colon; 4.66 µM in the experiment with DMS 114 small cell lung; 16.4 µM in the experiment on DMS 273 small cell lung; 13.9 µM in the experiment on LXFL 529 NSCLC; 27.3 µM with M19-MEL melanoma; 13.5 µM with MCF7 breast. Further, the TGI with MDA-MB-435 was 14.3 µM; in the experiment on SNB-78 CNS, 50 µM; in the experiment on T-47D breast, 16.7 µM. For the same compound, the GI50 in the experiment with MCF7 breast was 2.96 µM; in the experiment with MDA-MB-435 it was 3.59 µM; in the experiment with T-47D breast, 3.37 µM.

For `Cc1cc(C)c(C(=O)/C(=C/c2ccccc2)c2ccccc2)c(C)c1`, the TGI in the experiment with DLD-1 colon, in the experiment with DMS 114 small cell lung, in the experiment on LXFL 529 NSCLC, in the experiment on M19-MEL melanoma and in the experiment with XF 498 CNS was above 100 µM each time.

With `CCCCC1N=CNc2c1ccc1c2[nH]c2ccccc21` (stereo unspecified), the TGI with DLD-1 colon was 6.3 µM; in the experiment with DMS 114 small cell lung, 4.06 µM; in the experiment on DMS 273 small cell lung, 3.38 µM; in the experiment on LXFL 529 NSCLC, 3.78 µM; in the experiment with M19-MEL melanoma, 11.8 µM; in the experiment with MDA-MB-435, 3.35 µM. Moreover, the TGI with SNB-78 CNS was 38.6 µM; with T-47D breast, 3.2 µM; in the experiment on XF 498 CNS, 3.4 µM.

As for `c1cnc2nc3n(c2c1)CSC3`, the TGI with DLD-1 colon, in the experiment on DMS 114 small cell lung, in the experiment with LXFL 529 NSCLC, in the experiment with M19-MEL melanoma, in the experiment with SNB-78 CNS and in the experiment on XF 498 CNS was above 100 µM throughout.

Turning to `COc1cc(CC2C(=O)OCC2[C@@H](OC(C)=O)c2ccc3c(c2)OCO3)c(Br)c(OC)c1OC` (stereo partly specified), the TGI in the experiment on DLD-1 colon, in the experiment on DMS 114 small cell lung, in the experiment with DMS 273 small cell lung, in the experiment on LXFL 529 NSCLC, in the experiment on M19-MEL melanoma and in the experiment on XF 498 CNS was above 100 µM throughout.

Turning to `CN(CC1NCCCC1O)C12CC3CC(CC(C3)C1)C2` (stereo unspecified), the TGI with DLD-1 colon, in the experiment on DMS 114 small cell lung, in the experiment with DMS 273 small cell lung, in the experiment with LXFL 529 NSCLC, in the experiment with M19-MEL melanoma and with XF 498 CNS was above 100 µM each time.

For `COc1cc(CC(=O)c2cc3c(cc2-c2ccccc2)OCO3)cc(OC)c1OC`, the TGI in the experiment on DLD-1 colon was above 100 µM; in the experiment with DMS 114 small cell lung, above 100 µM; with DMS 273 small cell lung it was above 100 µM; with LXFL 529 NSCLC, above 100 µM; in the experiment on SNB-78 CNS, above 100 µM; in the experiment with XF 498 CNS, 77.3 µM.

With `O=C1C(Cl)C(c2ccc([N+](=O)[O-])cc2)N1n1cnc2ccccc2c1=O` (stereo unspecified), the TGI in the experiment on DLD-1 colon was above 100 µM; with DMS 114 small cell lung it was above 100 µM; in the experiment on DMS 273 small cell lung, above 100 µM; in the experiment with LXFL 529 NSCLC it was above 100 µM; in the experiment with SNB-78 CNS it was 88.1 µM; in the experiment with XF 498 CNS, above 100 µM.

In the case of `COC(=O)c1cc2c(nc1C)-c1ccccc1OS2(=O)=O`, the TGI in the experiment on DLD-1 colon, in the experiment with DMS 114 small cell lung, with DMS 273 small cell lung, in the experiment with LXFL 529 NSCLC, with M19-MEL melanoma and with SNB-78 CNS was above 100 µM in each case. The TGI in the experiment with XF 498 CNS is above 100 µM.

For `CN(CCCCN)c1ccc2c(=O)[nH][nH]c(=O)c2c1`, the TGI in the experiment with DLD-1 colon was above 100 µM; in the experiment with DMS 114 small cell lung it was above 100 µM; with DMS 273 small cell lung it was above 100 µM; in the experiment on LXFL 529 NSCLC it was above 100 µM; in the experiment on M19-MEL melanoma it was above 37 µM; with SNB-78 CNS, above 100 µM. The compound also displayed a TGI in the experiment on XF 498 CNS above 100 µM.

As for `CCCCc1c2c(nc3c1CCCC3=O)CCCC2`, the TGI in the experiment on DMS 114 small cell lung, in the experiment on DMS 273 small cell lung, with LXFL 529 NSCLC, in the experiment on M19-MEL melanoma and with XF 498 CNS was above 100 µM throughout.

For the compound `O=c1sc(-c2nc3ccccc3[nH]2)c(/N=C/c2ccccc2)n1-c1ccccc1`, the TGI with DLD-1 colon is above 100 µM; in the experiment on DMS 273 small cell lung it was above 100 µM; in the experiment on LXFL 529 NSCLC it was above 100 µM; in the experiment with M19-MEL melanoma, above 100 µM; in the experiment on SNB-78 CNS, above 100 µM; in the experiment with XF 498 CNS it was 54.7 µM.

As for `COc1cc(=O)oc(/C=C/CO)c1C`, the TGI with DLD-1 colon, in the experiment with DMS 114 small cell lung, in the experiment with DMS 273 small cell lung, with LXFL 529 NSCLC, with M19-MEL melanoma and with XF 498 CNS was above 100 µM throughout.

Regarding `Cc1cc(N(CCC#N)CCC#N)ccc1CC1N=C(c2ccccc2)OC1=O` (stereo unspecified), the TGI in the experiment on DLD-1 colon, in the experiment on DMS 114 small cell lung, with DMS 273 small cell lung, with LXFL 529 NSCLC, with M19-MEL melanoma and in the experiment with XF 498 CNS was above 100 µM in each case.

On to `COc1ccc(NC(=O)C2=CC(=O)c3ccc(O)cc3C2=O)c(OC)c1`, for which the TGI in the experiment on DLD-1 colon, in the experiment on DMS 114 small cell lung, in the experiment with LXFL 529 NSCLC, with M19-MEL melanoma, with SNB-78 CNS and with XF 498 CNS was above 100 µM each time.

As for `O=C1NC(Cc2ccccc2)C(=O)N2CCCC12` (stereo unspecified), the TGI in the experiment on DLD-1 colon, in the experiment on DMS 114 small cell lung, in the experiment with DMS 273 small cell lung, in the experiment on LXFL 529 NSCLC, in the experiment with M19-MEL melanoma and with SNB-78 CNS was above 100 µM each time. For the same compound, the TGI in the experiment with XF 498 CNS is above 100 µM.

On to `Cc1cc(C)c(C2=NO[C@@H]3C(=O)N(c4ccc(Cc5ccc(N6C(=O)[C@H]7C(c8c(C)cc(C)cc8C)=NO[C@H]7C6=O)cc5)cc4)C(=O)[C@H]23)c(C)c1`, for which the TGI with DLD-1 colon, in the experiment on DMS 114 small cell lung, with DMS 273 small cell lung, in the experiment with LXFL 529 NSCLC, in the experiment on M19-MEL melanoma and in the experiment with SNB-78 CNS was above 100 µM in each case. This compound yielded a TGI in the experiment with XF 498 CNS above 100 µM.

`O=C(CC1(O)C(=O)Nc2ccc([N+](=O)[O-])cc21)c1ccc(Br)cc1` (stereo unspecified): the TGI is above 100 µM in the experiment on DLD-1 colon; above 100 µM with DMS 114 small cell lung; above 100 µM with LXFL 529 NSCLC; 69 µM in the experiment with M19-MEL melanoma; above 100 µM in the experiment on SNB-78 CNS; above 100 µM in the experiment with XF 498 CNS.
